Assay results from the NIST ThermoML archive (doi:10.1016/j.jct.2017.05.041).
± gives the expanded uncertainty stated by the source.

Conditions: 293 K; 101.33 kPa; Crystal; X-ray diffraction

Structure (SMILES): NCC1(CC(=O)O)CCCCC1 [2-(1-(aminomethyl)cyclohexyl)acetic acid]
- mass density: 1239 ± 10 kg/m3

Structure (SMILES): NCC1(CC(=O)O)CCCCC1.O [2-(1-(aminomethyl)cyclohexyl)acetic acid monohydrate]
- mass density: 1210 ± 12 kg/m3
